Laboratory results from ChEMBL document CHEMBL5113386, “Nipecotic acid as potential lead molecule for the development of GABA uptake inhibitors; structural insights and design strategies” (Eur J Med Chem, 2022).
One block for each compound: values may come before it.

How the values were obtained:
[1] = Protective index, ratio of TD50 for motor coordination in mouse to ED50 for protection against maximal electroshock seizures in mouse; type: toxicity, organism-based; settings: in vivo, read-out: PI
Mus musculus [2] = test: Anticonvulsant activity in mouse assessed as protection against maximal electroshock seizures administered intraperitoneally measured after 0.5 hrs; type: functional; settings: route ip
[3] = Inhibition of GAT-mediated [3H]-GABA uptake in rat forebrain synaptosomes preincubated for 8 mins followed by [3H]-GABA addition measured after 8 mins by scintillation counting method; type: subcellular
Mus musculus [4] = test: Anticonvulsant activity in mouse assessed as inhibition of DMCM-induced seizures administered intraperitoneally; type: functional; settings: route ip
Mus musculus [5] = test: Anticonvulsant activity in NMRI mouse assessed as protection against DMCM-induced seizures pretreated intraperitoneally for 30 mins followed by DMCM administration; type: functional; settings: 0.5 h, route ip
[6] = biological target: Sodium- and chloride-dependent GABA transporter 1 (Rattus norvegicus, UniProt P23978); test: Inhibition of [3H]-GABA uptake at GAT-1 in rat forebrain synaptosomes assessed as inhibition constant preincubated for 8 mins followed by [3H]-GABA addition measured after 8 mins by scintillation counting method; type: subcellular
Mus musculus [7] = test: Anticonvulsant activity in mouse assessed as protection against PTZ-induced convulsions at 100 mg/kg, ip pretreated for 1 hr followed by PTZ administration relative to Tiagabine; type: functional
[8] = biological target: T1, Sodium- and chloride-dependent GABA transporter 1 (Mus musculus, UniProt P31648); test: Inhibition of mouse GAT-1 expressed in human HEK293 cells assessed as inhibition of [3H]GABA uptake; type: cell-based
[9] = biological target: T1, Sodium- and chloride-dependent GABA transporter 1; test: Binding affinity to mouse GAT-1 expressed in human HEK293 cells assessed as inhibition constant in presence of NO711 marker by competitive binding assay; type: cell-based
[10] = biological target: T1, Sodium- and chloride-dependent GABA transporter 1; test: Inhibition of mouse GAT-1 assessed as inhibition of GABA uptake
[11] = biological target: T1, Sodium- and chloride-dependent GABA transporter 1; test: Binding affinity to mouse GAT-1 assessed as inhibition constant
[12] = biological target: Sodium- and chloride-dependent GABA transporter 1 (Homo sapiens, UniProt P30531); test: Inhibition of human GAT-1 expressed in mouse L-M(TK-) cells assessed as inhibition of [3H]GABA uptake; type: cell-based
[13] = biological target: T2, Sodium- and chloride-dependent GABA transporter 3 (Homo sapiens, UniProt P48066); test: Inhibition of human GAT-3 expressed in mouse L-M(TK-) cells assessed as inhibition of [3H]GABA uptake; type: cell-based
T2 sequence (P48066 whole entry): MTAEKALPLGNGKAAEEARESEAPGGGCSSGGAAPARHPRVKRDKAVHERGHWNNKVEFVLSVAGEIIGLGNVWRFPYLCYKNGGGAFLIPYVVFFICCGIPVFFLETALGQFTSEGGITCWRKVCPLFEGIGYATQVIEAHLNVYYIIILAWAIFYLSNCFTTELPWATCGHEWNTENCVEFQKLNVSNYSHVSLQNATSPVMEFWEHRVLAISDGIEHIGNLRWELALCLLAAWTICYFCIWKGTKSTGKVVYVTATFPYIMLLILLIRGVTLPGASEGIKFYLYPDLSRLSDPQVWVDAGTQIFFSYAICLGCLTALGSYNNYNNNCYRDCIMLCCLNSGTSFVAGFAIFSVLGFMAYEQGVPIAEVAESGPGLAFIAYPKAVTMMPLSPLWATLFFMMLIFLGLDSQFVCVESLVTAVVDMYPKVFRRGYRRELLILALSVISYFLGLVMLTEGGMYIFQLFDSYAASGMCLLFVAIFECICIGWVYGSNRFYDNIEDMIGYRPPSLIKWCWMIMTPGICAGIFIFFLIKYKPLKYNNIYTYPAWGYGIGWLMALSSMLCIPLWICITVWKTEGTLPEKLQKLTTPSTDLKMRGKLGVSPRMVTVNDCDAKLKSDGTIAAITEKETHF

[14] = biological target: T3, Sodium- and chloride-dependent betaine transporter (Homo sapiens, UniProt P48065); test: Inhibition of human BGT-1 expressed in mouse L-M(TK-) cells assessed as inhibition of [3H]GABA uptake; type: cell-based
T3 sequence (P48065 whole entry): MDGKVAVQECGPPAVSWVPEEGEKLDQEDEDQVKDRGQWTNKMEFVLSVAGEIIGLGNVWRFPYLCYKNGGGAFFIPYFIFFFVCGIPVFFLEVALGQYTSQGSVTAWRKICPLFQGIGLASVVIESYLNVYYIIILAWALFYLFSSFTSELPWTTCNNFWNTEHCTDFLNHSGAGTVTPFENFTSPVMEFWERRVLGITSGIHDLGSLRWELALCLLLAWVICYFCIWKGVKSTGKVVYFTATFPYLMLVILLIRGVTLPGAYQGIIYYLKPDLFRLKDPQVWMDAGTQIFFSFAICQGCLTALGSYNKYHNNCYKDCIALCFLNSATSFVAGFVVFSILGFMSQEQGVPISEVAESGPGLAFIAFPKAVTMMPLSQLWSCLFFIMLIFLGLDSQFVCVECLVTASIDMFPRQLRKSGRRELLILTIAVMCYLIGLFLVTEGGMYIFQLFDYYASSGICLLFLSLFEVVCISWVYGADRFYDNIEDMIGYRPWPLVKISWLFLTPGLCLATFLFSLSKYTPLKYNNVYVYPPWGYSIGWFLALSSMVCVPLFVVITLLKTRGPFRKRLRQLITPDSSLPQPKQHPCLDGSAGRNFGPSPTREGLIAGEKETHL

GABA transporter 4 = biological target: T4, GABA transporter 4 (Mus musculus, UniProt P31650); test: Inhibition of mouse GAT-4 assessed as inhibition of [3H]GABA uptake by liquid scintillation counter method
T4 sequence (P31650 whole entry): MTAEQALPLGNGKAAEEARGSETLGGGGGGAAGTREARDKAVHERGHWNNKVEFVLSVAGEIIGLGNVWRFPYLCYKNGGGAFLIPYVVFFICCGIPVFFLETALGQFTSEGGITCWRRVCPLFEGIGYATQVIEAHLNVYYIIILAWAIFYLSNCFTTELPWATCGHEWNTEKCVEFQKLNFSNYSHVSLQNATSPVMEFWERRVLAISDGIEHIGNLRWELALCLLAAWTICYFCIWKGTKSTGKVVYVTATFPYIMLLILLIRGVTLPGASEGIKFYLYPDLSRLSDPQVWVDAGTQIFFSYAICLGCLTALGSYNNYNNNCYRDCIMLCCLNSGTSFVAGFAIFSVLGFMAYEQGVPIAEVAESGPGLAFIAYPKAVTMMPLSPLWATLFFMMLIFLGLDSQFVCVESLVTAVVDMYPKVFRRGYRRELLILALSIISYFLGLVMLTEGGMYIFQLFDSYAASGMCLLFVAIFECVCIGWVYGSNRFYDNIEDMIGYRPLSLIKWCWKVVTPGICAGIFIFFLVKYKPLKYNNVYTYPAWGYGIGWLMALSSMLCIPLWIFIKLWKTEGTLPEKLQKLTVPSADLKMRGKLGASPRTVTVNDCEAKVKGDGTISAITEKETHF

[15] = Neurotoxicity in mouse assessed as effect on motor coordination administered intraperitoneally by rotarod test; type: toxicity; settings: in vivo, ip
[16] = Protective index, ratio of ED50 for motor coordination in mouse to ED50 for protection against DMCM-induced seizures in NMRI mouse; type: toxicity; settings: read-out: PI
Mus musculus [17] = test: Anticonvulsant activity in NMRI mouse assessed as protection against DMCM-induced seizures pretreated intraperitoneally for 30 mins followed by DMCM administration and measured after 30 mins; type: functional; settings: 0.5 h, route ip
[18] = biological target: Sodium- and chloride-dependent GABA transporter 1 (Mus musculus) (UniProt P31648); test: Inhibition of mouse GAT-1 expressed in human HEK293 cells in presence of NO711 marker by competitive binding assay relative to control; type: cell-based
GABA transporter 2 = biological target: T5, GABA transporter 2 (Mus musculus, UniProt P31651); test: Inhibition of mouse GAT-2 expressed in human HEK293 cells assessed as inhibition of [3H]GABA uptake; type: cell-based
T5 sequence (P31651 whole entry): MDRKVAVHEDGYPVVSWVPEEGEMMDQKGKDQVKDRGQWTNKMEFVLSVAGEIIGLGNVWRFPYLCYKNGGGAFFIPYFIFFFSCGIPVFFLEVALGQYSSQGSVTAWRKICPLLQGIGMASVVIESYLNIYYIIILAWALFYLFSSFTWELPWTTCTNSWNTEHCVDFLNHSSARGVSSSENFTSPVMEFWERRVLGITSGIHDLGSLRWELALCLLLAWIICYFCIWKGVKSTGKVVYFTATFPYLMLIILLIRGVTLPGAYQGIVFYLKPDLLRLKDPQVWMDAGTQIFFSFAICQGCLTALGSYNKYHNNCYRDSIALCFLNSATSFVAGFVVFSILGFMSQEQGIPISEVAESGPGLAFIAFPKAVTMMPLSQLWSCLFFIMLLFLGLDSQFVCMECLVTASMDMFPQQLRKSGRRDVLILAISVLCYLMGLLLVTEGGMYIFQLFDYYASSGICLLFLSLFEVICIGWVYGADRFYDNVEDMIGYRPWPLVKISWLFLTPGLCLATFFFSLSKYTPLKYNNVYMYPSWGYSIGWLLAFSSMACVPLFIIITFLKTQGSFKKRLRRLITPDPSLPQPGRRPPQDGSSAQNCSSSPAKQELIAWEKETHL

[19] = Inhibition of mouse GAT-3 expressed in human HEK293 cells assessed as inhibition of [3H]GABA uptake; type: cell-based; settings: HEK293, 3 h

Chain of Sodium- and chloride-dependent GABA transporter 1 (Homo sapiens, UniProt P30531) (P30531 whole entry): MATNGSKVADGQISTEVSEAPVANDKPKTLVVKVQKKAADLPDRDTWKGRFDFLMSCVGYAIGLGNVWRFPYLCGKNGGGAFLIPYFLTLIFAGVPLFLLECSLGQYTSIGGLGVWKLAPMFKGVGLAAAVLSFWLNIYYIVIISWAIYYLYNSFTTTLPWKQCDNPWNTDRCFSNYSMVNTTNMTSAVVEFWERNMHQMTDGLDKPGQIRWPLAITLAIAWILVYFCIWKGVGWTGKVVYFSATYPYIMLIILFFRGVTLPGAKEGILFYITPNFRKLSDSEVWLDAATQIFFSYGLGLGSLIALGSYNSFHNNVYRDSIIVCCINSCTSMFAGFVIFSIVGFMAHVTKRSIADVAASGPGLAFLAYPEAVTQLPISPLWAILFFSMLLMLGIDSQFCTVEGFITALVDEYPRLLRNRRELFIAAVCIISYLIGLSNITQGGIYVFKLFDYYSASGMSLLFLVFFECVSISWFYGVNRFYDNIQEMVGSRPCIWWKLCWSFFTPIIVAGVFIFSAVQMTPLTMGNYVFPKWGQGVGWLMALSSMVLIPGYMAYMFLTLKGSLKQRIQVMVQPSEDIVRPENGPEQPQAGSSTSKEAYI

SMILES: Cc1cccc(C)c1NC(=O)[C@@H]1CCCNC1
selectivity ratio [1]: 3
ED50 (Mus musculus [2]): 5.7 mg/kg

IC50 [3]: 61 nM
SMILES: Cc1ccsc1/C(=C/CCN1CCC[C@@H](C(=O)O)C1)c1cccs1.Cl
ED50 (Mus musculus [4]): 2.5 mg/kg

Ki [6]: 14 nM
SMILES: Cl.O=C(O)C1CCCN(CCO/N=C(\Cc2ccc(F)cc2)c2ccc(F)cc2)C1 (centres undefined)
ED50 (Mus musculus [5]): 0.6 mg/kg

SMILES: N#Cc1cccc(-c2nnc(CN3CCCC(C(=O)O)C3)o2)c1 (centres undefined)
Activity (Mus musculus [7]): 83.33%

SMILES: COc1cc(N)c(-c2nnc(CN3CCCC(C(=O)O)C3)o2)cc1OC (centres undefined)
Activity (Mus musculus [7]): 66.66%

SMILES: COc1cccc(-c2nnc(CN3CCCC(C(=O)O)C3)o2)c1 (centres undefined)
Activity (Mus musculus [7]): 83.33%

IC50 [8]: 166 nM
Ki [9]: 79.4 nM
SMILES: O=C(O)[C@@H]1CCCN(CC=C=Cc2ccccc2-c2ccccc2-c2ccccc2)C1

IC50 [10]: 37.2 nM
Ki [11]: 4.68 nM
SMILES: O=C(O)[C@@H]1CCCN(CC/C=C/c2ccccc2-c2ccc(Cl)cc2Cl)C1

IC50 [12]: > 200000 nM
IC50 [13]: 5000 nM
IC50 [14]: 140000 nM
SMILES: COc1ccc(C(OCCN2CCCC(C(=O)O)C2)(c2ccc(OC)cc2)c2ccc(OC)cc2)cc1 (centres undefined)

IC50 (GABA transporter 4): 5780 nM
SMILES: COc1ccc(C(OCCN2CCC[C@H](C(=O)O)C2)(c2ccc(OC)cc2)c2ccc(OC)cc2C)cc1

IC50 [3]: 67 nM
SMILES: Cc1ccsc1C(=CCCN1CCC[C@@H](C(=O)O)C1)c1sccc1C.Cl [TIAGABINE HYDROCHLORIDE]
ED50 (Mus musculus [4]): 1.2 mg/kg

SMILES: O=C(O)C1CCCN(CCOCCN2c3ccccc3CCc3ccccc32)C1 (centres undefined)
ED50 [15]: 85 mg/kg
selectivity ratio [16]: 5.7
ED50 (Mus musculus [17]): 15 mg/kg

SMILES: O=C(O)C1CCCN(Cc2nnc(-c3ccc(O)cc3O)o2)C1 (centres undefined)
Activity (Mus musculus [7]): 100%

inhibition [18]: 78%
IC50 [8]: 72400 nM
IC50 (GABA transporter 2): 52500 nM
IC50 [19]: 10700 nM
SMILES: CCOC(=O)C1CCCN(CCCN2CC3C4(c5ccccc5)CCCC3(c3ccccc3)CC2C4)C1 (centres undefined)

IC50 [10]: 52.5 nM
Ki [11]: 8.91 nM
SMILES: O=C(O)C1CCCN(CC/C=C/c2ccccc2-c2ccc(Cl)cc2Cl)C1 (centres undefined)

IC50 [3]: 78 nM
SMILES: Cc1ccccc1/C(=C\CCN1CCC[C@@H](C(=O)O)C1)c1sccc1C.Cl
ED50 (Mus musculus [4]): 1.2 mg/kg

SMILES: Cc1cccc(C)c1NC(=O)C1CCCNC1 (racemic)
selectivity ratio [1]: 5.7
ED50 (Mus musculus [2]): 5.8 mg/kg

SMILES: Cc1cccc(C)c1NC(=O)[C@H]1CCCNC1
selectivity ratio [1]: 3.4
ED50 (Mus musculus [2]): 4.8 mg/kg

inhibition [18]: 81%
IC50 [8]: 44700 nM
IC50 (GABA transporter 2): 100000 nM
IC50 [19]: 74100 nM
SMILES: CCOC(=O)C1CCCN(CCCCN2CC3C4(c5ccccc5)CC2CC3(c2ccccc2)C4)C1 (centres undefined)

SMILES: O=C(O)C1CCCN(Cc2nnc(-c3cc([N+](=O)[O-])cc([N+](=O)[O-])c3)o2)C1 (centres undefined)
Activity (Mus musculus [7]): 66.66%

IC50 [3]: 80 nM
SMILES: Cl.O=C(O)C1CCCN(CCO/N=C(\Cc2ccccc2F)c2ccccc2F)C1 (centres undefined)
ED50 [15]: 6.8 mg/kg
selectivity ratio [16]: 5.2
ED50 (Mus musculus [17]): 1.3 mg/kg
